Reference: ChEMBL document CHEMBL1142843, “Synthesis and evaluation of a series of tropane analogues as novel vesicular monoamine transporter-2 ligands” (Bioorg Med Chem Lett, 2005)

Experiments:
[1] = molecular target: T1, Synaptic vesicular amine transporter (Rattus norvegicus, UniProt Q01827); test: Inhibition constant against [3H]dihydrotetrabenazine binding to vesicular monoamine transporter-2 of rat synaptic vesicle membranes
[2] = molecular target: Neuronal acetylcholine receptor alpha7 (Rattus norvegicus); test: Inhibition constant against [3H]methyllycaconitine binding to alpha7 nicotinic acetylcholine receptor of rat brain membranes
[3] = molecular target: Neuronal acetylcholine receptor alpha4beta2 (Rattus norvegicus); test: Inhibition constant against [3H]nicotine binding to alpha4beta2 nicotinic acetylcholine receptor of rat brain membranes
[4] = molecular target: T1, Synaptic vesicular amine transporter; test: Inhibition constant against [3H]methyllycaconitine binding to vesicular monoamine transporter-2 of rat brain membranes
[5] = molecular target: T1, Synaptic vesicular amine transporter; test: Inhibition constant against [3H]nicotine binding to vesicular monoamine transporter-2 of rat brain membranes

T1 sequence (Q01827 whole entry): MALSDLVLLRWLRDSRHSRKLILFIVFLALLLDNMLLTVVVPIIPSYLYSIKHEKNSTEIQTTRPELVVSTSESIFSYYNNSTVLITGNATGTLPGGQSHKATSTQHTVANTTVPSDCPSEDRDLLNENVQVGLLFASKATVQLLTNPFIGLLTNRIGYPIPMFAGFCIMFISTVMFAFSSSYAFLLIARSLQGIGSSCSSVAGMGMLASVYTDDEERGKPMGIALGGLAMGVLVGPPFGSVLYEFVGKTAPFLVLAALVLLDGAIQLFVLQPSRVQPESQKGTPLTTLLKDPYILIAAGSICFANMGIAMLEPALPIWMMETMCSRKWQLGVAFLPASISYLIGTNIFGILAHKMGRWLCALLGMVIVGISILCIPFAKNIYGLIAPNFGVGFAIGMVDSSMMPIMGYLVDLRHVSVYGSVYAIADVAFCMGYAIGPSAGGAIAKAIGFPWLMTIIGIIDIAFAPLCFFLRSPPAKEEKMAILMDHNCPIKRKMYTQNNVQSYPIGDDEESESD

Compound: CN1C2CCC1[C@@H](Cc1ccc(F)cc1)C=C2Cc1ccc(F)cc1 (stereo partly drawn)
- Ki [1]: 1.38 µM
- Ki [2]: > 100 µM
- Ki [3]: > 100 µM

Compound: CN1C2CCC1[C@@H](Cc1ccccc1)C(O)[C@H]2Cc1ccccc1 (stereo in doubt; 7a)
- Ki [1]: > 100 µM
- Ki [2]: > 100 µM
- Ki [3]: > 100 µM

Compound: CN1C2CCC1[C@@H](Cc1ccccc1)C(=O)[C@H]2Cc1ccccc1
- Ki [1]: > 100 µM
- Ki [2]: > 100 µM
- Ki [3]: > 100 µM

Compound: COc1ccc(C[C@@H]2C[C@H](Cc3ccc(OC)cc3)C3CCC2N3C)cc1
- Ki [1]: 3.88 µM
- Ki [2]: > 100 µM
- Ki [3]: > 100 µM

Compound: CN1C2CCC1[C@@H](CCCc1ccccc1)C[C@H]2CCCc1ccccc1
- Ki [1]: 3.95 µM
- Ki [2]: > 100 µM
- Ki [3]: > 100 µM

Compound: CN1C2CCC1[C@H](Cc1ccccc1)CC2 (stereo partly drawn)
- Ki [1]: > 100 µM
- Ki [2]: 14 µM
- Ki [3]: > 6.57 µM

Compound: COc1ccc(CC2=C[C@H](Cc3ccc(OC)cc3)C3CCC2N3C)cc1 (stereo partly drawn)
- Ki [1]: 4.8 µM
- Ki [2]: > 100 µM
- Ki [3]: > 100 µM

Compound: CN1C2CCC1[C@@H](Cc1ccccc1)C(O)[C@H]2Cc1ccccc1 (stereo in doubt; 7b)
- Ki [1]: > 100 µM
- Ki [4]: > 100 µM
- Ki [5]: > 100 µM

Compound: CN1C2CCC1[C@@H](Cc1ccccc1)C[C@H]2Cc1ccccc1
- Ki [1]: > 100 µM
- Ki [2]: > 100 µM
- Ki [3]: > 100 µM

Compound: CN1C2CC=C(Cc3ccccc3)C1CC2 (stereo not drawn)
- Ki [1]: > 100 µM
- Ki [2]: 15.2 µM
- Ki [3]: 1.84 µM

Compound: CN1C2CCC1[C@@H](Cc1ccc(F)cc1)C[C@H]2Cc1ccc(F)cc1
- Ki [1]: > 100 µM
- Ki [2]: > 100 µM
- Ki [3]: > 100 µM
